Experimental data published in ChEMBL document CHEMBL4507292 (2021).
pIC50: −log10 of the molar value.

Experiments:
[1] = species: Rattus norvegicus; assay: Serotonin (5-Hydroxytryptamine) 5-HT2, Non-Selective Eurofins-Panlabs radioligand binding assay; format: protein assay; conditions: Compound concentration 10.0 uM
[2] = biological target: Endothelin receptor type B (Homo sapiens) (UniProt P24530); conditions: Compound concentration 10.0 uM
[3] = biological target: hERG (KCNH2) potassium channel (Homo sapiens, UniProt Q12809); assay: Inhibition of Potassium Channel hERG at 10 µM in the Eurofins-Panlabs radioligand binding assay (Eurofins_assay_265900); parameters: ligand concentration 1.5 nM, non-specific ligand with concentration Astemizole, incubation time 60 min, incubation temperature 25 °C; conditions: HEK-293 cells expressing human recombinant hERG, probe [3H] Astemizole, 1.5 nM, compound concentration 10 uM
[4] = biological target: Type-2 angiotensin II receptor (Homo sapiens) (UniProt P50052); assay: Angiotensin AT2 Eurofins-Panlabs radioligand binding assay; format: protein assay; conditions: Compound concentration 10.0 uM
[5] = biological target: Melanocortin receptor 4 (Homo sapiens) (UniProt P32245); assay: Inhibition of Melanocortin MC4 at 10 µM in the Eurofins-Panlabs radioligand binding assay (Eurofins_assay_251350); parameters: ligand concentration 0.02 nM; conditions: Compound concentration 10.0 uM
[6] = biological target: Neprilysin (Homo sapiens) (UniProt P08473); assay: Peptidase, Metalloproteinase, Neutral Endopeptidase Eurofins-Panlabs enzyme assay; conditions: Compound concentration 10.0 uM
[7] = biological target: T1, Alpha-1D adrenergic receptor (Homo sapiens) (UniProt P25100); assay: Inhibition of Adrenergic alpha1D at 10 µM in the Eurofins-Panlabs radioligand binding assay (Eurofins_assay_203400); conditions: Compound concentration 10.0 uM
T1 sequence (whole entry): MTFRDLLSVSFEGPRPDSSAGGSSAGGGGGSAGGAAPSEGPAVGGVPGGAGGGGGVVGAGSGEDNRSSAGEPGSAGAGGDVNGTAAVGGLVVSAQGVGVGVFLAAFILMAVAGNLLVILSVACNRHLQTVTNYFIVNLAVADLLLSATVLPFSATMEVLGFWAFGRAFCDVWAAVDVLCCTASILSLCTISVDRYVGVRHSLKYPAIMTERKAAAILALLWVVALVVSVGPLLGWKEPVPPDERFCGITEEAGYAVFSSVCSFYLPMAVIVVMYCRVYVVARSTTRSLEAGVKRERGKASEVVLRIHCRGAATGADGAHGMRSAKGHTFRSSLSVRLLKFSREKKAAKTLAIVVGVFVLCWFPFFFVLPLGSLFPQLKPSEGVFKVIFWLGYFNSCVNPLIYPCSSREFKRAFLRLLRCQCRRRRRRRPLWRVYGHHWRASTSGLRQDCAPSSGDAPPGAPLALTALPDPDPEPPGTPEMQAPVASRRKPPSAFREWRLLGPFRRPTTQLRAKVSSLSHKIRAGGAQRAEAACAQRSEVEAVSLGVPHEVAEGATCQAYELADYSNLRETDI

[8] = biological target: Glutamate NMDA receptor (Rattus norvegicus) (UniProt P35439+Q00959+Q00960+Q00961+Q62645+Q8VHN2+Q9R1M7); conditions: Compound concentration 10.0 uM
[9] = biological target: Adenosine Transporter (Cavia porcellus) (UniProt H0V4R7+H0UUG1+H0V3Z5); assay: Inhibition of Transporter, Adenosine at compound concentration of 10.0 uM in the Eurofins-Panlabs radioligand binding assay (Eurofins_assay_202000); format: protein assay; parameters: ligand concentration 0.5 nM, non-specific ligand with concentration 5 uM Nitrobenzylthioinosine, incubation time 30 min, incubation temperature 25 C; conditions: Compound concentration 10.0 uM
[10] = biological target: ATP-sensitive inward rectifier potassium channel 11 (Cricetulus griseus) (UniProt A0A3L7HHE1); assay: Inhibition of Potassium Channel [KATP] at 10 µM in the Eurofins-Panlabs radioligand binding assay (Eurofins_assay_265600); conditions: Cricetinae; Compound concentration 10.0 uM
[11] = biological target: Somatostatin receptor type 1 (Homo sapiens) (UniProt P30872); assay: Somatostatin sst1 Eurofins-Panlabs radioligand binding assay; parameters: ligand concentration 0.1 nM; conditions: Compound concentration 10.0 uM
[12] = biological target: Neutrophil elastase (Homo sapiens) (UniProt P08246); assay: Peptidase, ELA2 (Neutrophil Elastase 2) Eurofins-Panlabs enzyme assay; conditions: Compound concentration 30.0 uM
[13] = biological target: Galanin receptor type 1 (Homo sapiens) (UniProt P47211); assay: Galanin GAL1 Eurofins-Panlabs radioligand binding assay; conditions: Compound concentration 10.0 uM
[14] = species: Rattus norvegicus; assay: Serotonin (5-Hydroxytryptamine) 5-HT1, Non-Selective Eurofins-Panlabs radioligand binding assay; format: protein assay; conditions: concentration not given here
[15] = biological target: Muscarinic acetylcholine receptor M3 (Homo sapiens) (UniProt P20309); conditions: Compound concentration 10.0 uM
[16] = biological target: Endothelin-1 receptor (Homo sapiens) (UniProt P25101); conditions: Compound concentration 10.0 uM
[17] = biological target: Vascular endothelial growth factor receptor 1 (Homo sapiens) (UniProt P17948); assay: Protein Tyrosine Kinase, FLT1 (VEGFR-1) Eurofins-Panlabs enzyme assay; conditions: Compound concentration 10.0 uM
[18] = biological target: Melatonin receptor (Gallus gallus) (UniProt P49288+P51050+P49285); assay: Melatonin MT, Non-Selective Eurofins-Panlabs radioligand binding assay; format: protein assay; conditions: Compound concentration 10.0 uM
[19] = biological target: Phosphodiesterase 3 (Homo sapiens, UniProt Q14432+Q13370); assay: Inhibition of Phosphodiesterase PDE3 at compound concentration of 10.0 uM in the Eurofins-Panlabs enzyme assay (Eurofins_assay_152000); format: protein assay; parameters: substrate with concentration 1.01 uM [3H] cAMP + cAMP, incubation time 20 min, incubation temperature 25 C
[20] = biological target: Protein kinase C alpha type (Homo sapiens) (UniProt P17252); assay: Inhibition of Protein Serine/Threonine Kinase, PRKCA (PKCα) at 10 µM in the Eurofins-Panlabs enzyme assay (Eurofins_assay_180010); parameters: substrate with concentration Histone, incubation time 10 min, incubation temperature 25 °C; conditions: Compound concentration […]
[21] = biological target: L-type calcium channel, dihydropyridine site (Cav1.2 alpha-1C) (Homo sapiens, UniProt Q13936); assay: Inhibition of Calcium Channel L-Type, Dihydropyridine at 10 µM in the Eurofins-Panlabs radioligand binding assay (Eurofins_assay_214600); parameters: ligand concentration 0.1 nM, non-specific ligand with concentration 1 µM Nitrendipine, incubation time 90 min, incubation temperature 25 °C; conditions: Wistar, rat, rat cerebral cortex preparation, probe [3H] Nitrendipine, 0.1 nM; compound concentration 10 uM; target entry is the homologue from another species
[22] = species: Oryctolagus cuniculus; assay: Inhibition of Purinergic P2X at 10 µM in the Eurofins-Panlabs radioligand binding assay (Eurofins_assay_268700); format: protein assay; conditions: Compound concentration 10.0 uM
[23] = biological target: Caspase-6 (Homo sapiens) (UniProt P55212); assay: Peptidase, CASP6 (Caspase 6) Eurofins-Panlabs enzyme assay; parameters: substrate with concentration; conditions: Compound concentration 10.0 uM
[24] = biological target: Platelet-activating factor receptor (Homo sapiens) (UniProt P25105); assay: Inhibition of Platelet Activating Factor (PAF) at 10 µM in the Eurofins-Panlabs radioligand binding assay (Eurofins_assay_265010); conditions: Compound concentration 10.0 uM
[25] = biological target: Voltage-dependent N-type calcium channel subunit alpha-1B (Homo sapiens) (UniProt Q00975); assay: Inhibition of Calcium Channel N-Type at 10 µM in the Eurofins-Panlabs radioligand binding assay (Eurofins_assay_216000); conditions: Rattus norvegicus; Compound concentration 10.0 uM
[26] = biological target: cGMP-dependent 3',5'-cyclic phosphodiesterase (Homo sapiens, UniProt O00408); assay: Phosphodiesterase PDE2 Eurofins-Panlabs enzyme assay; parameters: substrate with concentration [3H] cAMP + cAMP, incubation time 20 min, incubation temperature 25 °C
[27] = Compound concentration 100.0 uM

Chain of cGMP-dependent 3',5'-cyclic phosphodiesterase (O00408 whole entry): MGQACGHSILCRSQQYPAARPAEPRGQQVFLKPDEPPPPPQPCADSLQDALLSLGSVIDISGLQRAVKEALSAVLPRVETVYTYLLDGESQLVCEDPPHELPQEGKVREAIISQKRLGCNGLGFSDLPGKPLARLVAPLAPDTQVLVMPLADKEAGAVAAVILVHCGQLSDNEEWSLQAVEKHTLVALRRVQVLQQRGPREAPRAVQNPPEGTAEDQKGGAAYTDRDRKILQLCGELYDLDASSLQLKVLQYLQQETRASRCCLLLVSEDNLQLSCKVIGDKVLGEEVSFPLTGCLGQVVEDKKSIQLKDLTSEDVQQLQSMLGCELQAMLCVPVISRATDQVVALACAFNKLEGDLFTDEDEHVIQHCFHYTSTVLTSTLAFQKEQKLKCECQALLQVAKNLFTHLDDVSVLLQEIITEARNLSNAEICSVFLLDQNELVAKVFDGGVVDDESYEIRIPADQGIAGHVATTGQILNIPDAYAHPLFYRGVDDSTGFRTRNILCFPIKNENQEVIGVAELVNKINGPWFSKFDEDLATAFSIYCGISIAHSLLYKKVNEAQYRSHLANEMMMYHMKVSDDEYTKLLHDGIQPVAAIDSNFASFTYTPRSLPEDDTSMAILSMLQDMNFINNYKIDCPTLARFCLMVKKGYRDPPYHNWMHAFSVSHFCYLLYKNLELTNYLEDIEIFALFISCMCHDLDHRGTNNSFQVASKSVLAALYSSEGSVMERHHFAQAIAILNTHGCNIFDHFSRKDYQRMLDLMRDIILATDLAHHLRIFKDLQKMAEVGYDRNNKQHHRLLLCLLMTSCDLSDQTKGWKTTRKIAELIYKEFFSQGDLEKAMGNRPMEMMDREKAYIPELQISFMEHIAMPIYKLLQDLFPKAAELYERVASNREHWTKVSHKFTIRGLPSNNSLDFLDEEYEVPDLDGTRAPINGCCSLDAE
Chain of Type-2 angiotensin II receptor (Homo sapiens) (P50052 whole entry): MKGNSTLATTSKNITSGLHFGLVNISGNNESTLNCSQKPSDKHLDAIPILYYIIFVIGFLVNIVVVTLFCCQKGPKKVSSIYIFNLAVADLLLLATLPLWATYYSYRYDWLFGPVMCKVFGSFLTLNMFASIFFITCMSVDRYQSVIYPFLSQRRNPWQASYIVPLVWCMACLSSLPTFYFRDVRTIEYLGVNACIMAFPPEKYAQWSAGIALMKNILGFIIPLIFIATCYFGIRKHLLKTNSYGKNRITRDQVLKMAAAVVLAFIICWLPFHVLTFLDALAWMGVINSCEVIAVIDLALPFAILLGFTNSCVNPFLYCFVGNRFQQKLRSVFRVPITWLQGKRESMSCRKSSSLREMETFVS
Chain of Muscarinic acetylcholine receptor M3 (Homo sapiens) (P20309 whole entry, looked up): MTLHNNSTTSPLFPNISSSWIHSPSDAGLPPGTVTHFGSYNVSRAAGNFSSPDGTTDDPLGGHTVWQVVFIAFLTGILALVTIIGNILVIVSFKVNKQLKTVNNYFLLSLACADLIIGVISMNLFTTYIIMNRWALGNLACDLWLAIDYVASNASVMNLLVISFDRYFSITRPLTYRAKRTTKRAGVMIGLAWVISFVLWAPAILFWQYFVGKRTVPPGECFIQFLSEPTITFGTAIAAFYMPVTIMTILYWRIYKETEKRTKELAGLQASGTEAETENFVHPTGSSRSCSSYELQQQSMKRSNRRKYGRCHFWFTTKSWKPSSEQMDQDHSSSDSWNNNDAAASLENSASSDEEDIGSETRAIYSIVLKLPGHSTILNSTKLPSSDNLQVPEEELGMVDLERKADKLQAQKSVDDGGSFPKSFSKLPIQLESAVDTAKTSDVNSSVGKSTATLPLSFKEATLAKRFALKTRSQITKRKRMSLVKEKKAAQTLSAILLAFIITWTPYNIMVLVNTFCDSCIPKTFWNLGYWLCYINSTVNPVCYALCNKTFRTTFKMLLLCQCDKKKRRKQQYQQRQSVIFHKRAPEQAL
Chain of Neutrophil elastase (Homo sapiens) (P08246 whole entry): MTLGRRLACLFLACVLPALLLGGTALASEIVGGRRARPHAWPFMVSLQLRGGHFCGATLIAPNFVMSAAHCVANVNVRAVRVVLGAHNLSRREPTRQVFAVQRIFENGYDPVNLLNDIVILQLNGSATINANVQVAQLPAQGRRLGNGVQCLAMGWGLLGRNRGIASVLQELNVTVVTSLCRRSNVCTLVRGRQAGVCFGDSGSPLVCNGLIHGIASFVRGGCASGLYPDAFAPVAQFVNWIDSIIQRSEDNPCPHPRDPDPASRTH
Chain of Endothelin-1 receptor (Homo sapiens) (P25101 whole entry): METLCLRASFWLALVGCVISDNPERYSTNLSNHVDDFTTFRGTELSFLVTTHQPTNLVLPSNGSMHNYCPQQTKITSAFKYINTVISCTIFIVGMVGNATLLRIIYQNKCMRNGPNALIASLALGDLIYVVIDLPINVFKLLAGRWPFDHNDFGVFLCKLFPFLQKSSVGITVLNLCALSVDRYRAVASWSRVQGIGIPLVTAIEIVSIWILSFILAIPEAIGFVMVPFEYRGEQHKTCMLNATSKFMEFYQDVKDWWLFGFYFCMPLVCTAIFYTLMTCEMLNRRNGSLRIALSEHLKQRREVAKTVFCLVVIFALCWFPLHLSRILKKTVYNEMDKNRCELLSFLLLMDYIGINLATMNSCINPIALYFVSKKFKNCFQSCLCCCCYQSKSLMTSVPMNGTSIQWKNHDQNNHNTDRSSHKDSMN
Chain of Caspase-6 (Homo sapiens) (P55212 24-179 limits assumed): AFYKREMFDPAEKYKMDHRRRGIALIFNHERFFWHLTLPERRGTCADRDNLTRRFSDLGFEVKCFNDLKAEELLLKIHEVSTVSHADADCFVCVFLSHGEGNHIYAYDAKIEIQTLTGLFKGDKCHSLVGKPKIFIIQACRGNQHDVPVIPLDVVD
Chain of Caspase-6 (Homo sapiens) (P55212 194-293 limits assumed): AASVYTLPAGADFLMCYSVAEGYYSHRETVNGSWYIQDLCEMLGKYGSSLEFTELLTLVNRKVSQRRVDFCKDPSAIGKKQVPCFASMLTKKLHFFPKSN
Chain of Galanin receptor type 1 (Homo sapiens) (P47211 whole entry): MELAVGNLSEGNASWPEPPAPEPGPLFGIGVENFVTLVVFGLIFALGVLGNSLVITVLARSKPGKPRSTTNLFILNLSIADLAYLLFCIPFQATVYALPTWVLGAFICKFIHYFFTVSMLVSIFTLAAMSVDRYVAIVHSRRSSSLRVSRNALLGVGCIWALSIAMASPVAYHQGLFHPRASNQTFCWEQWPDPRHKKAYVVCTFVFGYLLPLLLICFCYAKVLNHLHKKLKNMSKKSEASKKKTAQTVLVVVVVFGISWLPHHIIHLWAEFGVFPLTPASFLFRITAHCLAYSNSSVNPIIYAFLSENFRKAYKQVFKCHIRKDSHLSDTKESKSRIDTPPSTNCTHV
Chain of Platelet-activating factor receptor (Homo sapiens) (P25105 whole entry): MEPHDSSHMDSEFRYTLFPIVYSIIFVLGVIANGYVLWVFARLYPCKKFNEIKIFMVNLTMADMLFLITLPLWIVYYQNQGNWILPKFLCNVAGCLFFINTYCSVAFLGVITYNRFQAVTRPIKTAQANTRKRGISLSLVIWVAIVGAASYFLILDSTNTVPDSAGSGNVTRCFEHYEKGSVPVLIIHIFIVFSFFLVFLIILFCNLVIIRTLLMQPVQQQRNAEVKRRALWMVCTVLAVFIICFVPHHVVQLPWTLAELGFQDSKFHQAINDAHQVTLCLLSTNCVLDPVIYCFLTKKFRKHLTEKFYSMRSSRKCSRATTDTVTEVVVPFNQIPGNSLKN
Chain of ATP-sensitive inward rectifier potassium channel 11 (Cricetulus griseus) (A0A3L7HHE1 as listed by the source): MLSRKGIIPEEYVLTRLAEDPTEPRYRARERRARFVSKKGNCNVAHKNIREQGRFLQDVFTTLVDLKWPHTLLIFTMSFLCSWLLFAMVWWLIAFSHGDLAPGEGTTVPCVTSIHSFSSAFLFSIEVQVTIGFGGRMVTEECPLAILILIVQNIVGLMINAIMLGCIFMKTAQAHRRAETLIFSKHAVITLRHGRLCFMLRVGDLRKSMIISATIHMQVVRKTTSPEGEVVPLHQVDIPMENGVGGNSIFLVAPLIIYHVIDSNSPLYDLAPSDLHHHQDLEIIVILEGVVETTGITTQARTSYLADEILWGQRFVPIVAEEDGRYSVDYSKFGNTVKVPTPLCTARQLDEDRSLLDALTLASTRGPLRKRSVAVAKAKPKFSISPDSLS
Chain of Melanocortin receptor 4 (Homo sapiens) (P32245 whole entry): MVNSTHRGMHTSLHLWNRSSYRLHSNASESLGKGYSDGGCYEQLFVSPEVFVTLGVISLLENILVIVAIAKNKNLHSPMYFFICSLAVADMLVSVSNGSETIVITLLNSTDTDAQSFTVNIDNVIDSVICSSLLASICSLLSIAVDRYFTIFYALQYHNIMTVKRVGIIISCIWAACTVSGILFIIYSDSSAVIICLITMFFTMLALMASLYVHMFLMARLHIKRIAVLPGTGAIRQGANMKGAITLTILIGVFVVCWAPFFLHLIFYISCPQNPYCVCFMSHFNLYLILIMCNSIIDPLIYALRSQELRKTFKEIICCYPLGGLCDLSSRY

O=C(O)c1cc(-c2ccc(C3CCNCC3)cc2)c2ccc(-c3ccc(C(F)(F)F)cc3)cc2c1 [PPTN]
inhibition [1]: 0%
inhibition [2]: -1%
inhibition at 60 min, 10 µM [3]: -6% (not active)
inhibition [4]: 11%
inhibition [5]: 28%
inhibition [6]: 1%
inhibition [7]: -5%
inhibition [8]: 1%
inhibition [9]: 9%
inhibition [10]: 1%
inhibition [11]: 34%
inhibition [12]: -4%
inhibition [13]: 19%
inhibition [14]: 5%
inhibition [15]: 11%
inhibition [16]: 6%
inhibition [17]: -2%
inhibition [18]: -7%
IC50 [19]: 51.5 µM
inhibition ([19]; Compound concentration 0.1 uM): -7%
inhibition ([19]; Compound concentration 1.0 uM): 4%
inhibition ([19]; Compound concentration 10.0 uM): 28%
inhibition [19, 27]: 59%
inhibition [20]: 29%
inhibition at 90 min, 10 µM [21]: 20% (not active)
inhibition [22]: 14%
inhibition [23]: -8%
inhibition [24]: 4%
inhibition [25]: 11%
pIC50 [26]: 4.06
inhibition ([26]; Compound concentration 1.0 uM): -3%
inhibition ([26]; Compound concentration 10.0 uM): 4%
inhibition [26, 27]: 55%
